This assay has as its target T1, α7-type neuronal nicotinic acetylcholine receptors (Rattus norvegicus, UniProt Q05941).
T1 construct: from tissue; host or cells: rat brain membranes (whole brain without cortex, striatum and cerebellum)
Nature of the assay: Inhibition of [3H]Methyllycaconitine (MLA) binding assay, rat brain membranes. To be noted: read-out: K1 value, displacement of [3H]MLA binding. The protocol:
Rat brain was dissected into the whole brain tissue without cortex, striatum and cerebellum and was frozen in liquid nitrogen and stored at −70° C. until use. The brain tissue was homogenized with a Tekmar Polytron (setting 40) in 20 volumes of ice-cold hypotonic buffer (2 mM HEPES, 14.4 mM NaCl, 0.15 mM KCl, 0.2 mM CaCl2 and 0.1 mM MgSO4, pH=7.5). The homogenate was incubated at 37° C. for 10 minutes and centrifuged at 25,000 g for 15 minutes at […] The pellet was washed 3 times more by resuspension in 20 volumes of the same buffer and centrifugation at the above parameters. The final pellet was stored at −20° C. under 4.6 mL of the incubation buffer and was suspended just before the incubation with radioligand.
The binding of [^3H]MLA to probe α7-type neuronal nicotinic acetylcholine receptors was measured using a modification of the method of Davies at al., “Characterisation of the binding of [^3H]methyllycaconitine (MLA): a radioligand for labelling α7-type neuronal nicotinic acetylcholine receptors,” Neuropharmacology, 38, 679-690 (1999). [^3H]MLA (25.4 Ci/mmol) was purchased from Tocris Cookson Ltd., Bristol, U.K. Binding was performed in duplicate, in a final volume of 250 μL of the incubation medium, containing 20 mM HEPES, 144 mM NaCl, 1.5 mM KCl, 2 mM CaCl2, 1 mM MgSO4 and 0.05% BSA, pH=7.5. Reaction was initiated by the addition of 100 μL of membrane suspension to the samples containing a desired concentration of test compounds and […] [^3H]MLA (final concentration) and incubated for 2 hours it room temperature. Total binding was measured in the absence of unlabelled ligand, and nonspecific binding was determined by the presence of 1 μM unlabelled MLA. The binding reaction was terminated by dilution of samples with 3 mL of ice-cold incubation buffer followed by immediate filtration through glass fiber filters (S&S, grade #32, presoaked in 0.5% polyethylenimine) using a Brandel harvester system. Filters were rinsed three times with 3 mL of ice-cold buffer, transferred to scintillation vials and 4 mL of scintillation cocktail was added. Protein was measured using the Bradford dye-binding procedure with bovine serum albumin as the standard.
The tris-quaternary ammonium salts were evaluated for their ability to displace [^3H]MLA binding from rat brain membranes.
Data are % inhibition at 100 nM concentration of analog for at least 1-3 independent experiments. Specific binding in the [^3H]NIC binding assay is calculated at the difference between the total binding of [^3H]NIC and nonspecific binding in the presence of 10 μM cold nicotine. Specific binding for the [^3H]MLA binding assay is calculated as the difference between the total binding of 2.5 nM [^3H]MLA to the receptors alone and its nonspecific binding in the presence of 1 μM cold MLA. Analog-induced inhibition of nicotine-evoked [^3H]DA release is calculated as a percent of that in the absence of analog.

This is an account of results in patent US8940774B2, “Tris-Quaternary Ammonium Salts and Methods for Modulating Neuronal Nicotinic Acetylcholine Receptors” (University of Kentucky Research Foundation, priority 2005, dated 2015).

T1 sequence (Q05941 23-502): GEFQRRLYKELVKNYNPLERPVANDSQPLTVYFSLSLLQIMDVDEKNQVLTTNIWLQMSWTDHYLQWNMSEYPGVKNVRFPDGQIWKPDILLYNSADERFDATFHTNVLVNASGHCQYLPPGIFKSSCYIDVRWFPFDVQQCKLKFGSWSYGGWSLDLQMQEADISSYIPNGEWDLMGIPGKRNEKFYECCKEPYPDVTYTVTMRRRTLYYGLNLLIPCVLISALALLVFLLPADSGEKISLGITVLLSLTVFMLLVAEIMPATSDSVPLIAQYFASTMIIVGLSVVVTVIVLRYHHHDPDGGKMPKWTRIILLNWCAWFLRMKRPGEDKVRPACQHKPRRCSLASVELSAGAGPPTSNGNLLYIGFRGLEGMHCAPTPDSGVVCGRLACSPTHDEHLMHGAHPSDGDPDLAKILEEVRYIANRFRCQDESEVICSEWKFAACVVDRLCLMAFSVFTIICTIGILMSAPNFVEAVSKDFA

On to α-bungarotoxin [reference compound], for which the Ki was found to be 28.6 ± 5.4 nM.
